Measured values as given in patent US20110305673A1, “COMPOSITIONS AND METHODS FOR TISSUE REPAIR” (The University of Vermont and State Agriculture College, priority 2008, published 2011).

Legend:
cardiac progenitor cells [1] = test: CPC protection study under hypoxia (1% oxygen, 48 hours); type: cell-based, rat; settings: inhibitor 10 μM
Method: Serum-free conditioned media was prepared as described previously (Kiel et al., Cell 2005; 121:1109-1121). cardiac progenitor cells and cardiac fibroblasts were plated at 500 cells/cm^2 and cultured in their growth medium. Three days after plating the medium was removed, the wells were washed twice with PBS, and the cells were then exposed to conditioned media or to fresh serum-free medium (α-MEM). For time course proliferation studies, the conditioned media and serum-free medium were changed every 2 days. In the signal transduction inhibitor studies the following pharmacological inhibitors, were used (10 micromolar): AG490, an inhibitor of Jak2/STAT3 pathway; Stattic, a specific inhibitor of STAT3 phosphorylation at Tyr^705; LY294002, inhibitor of phosphatidylinositol 3-kinase (PI3K)/Akt pathway; and PD98059, extracellular signal-regulated kinase (ERK) inhibitor. […] The hypoxia incubator was a model that measured both CO2 and O2 (Thermo Electron, Form a Series II, model 3130). Oxygen was maintained at 1% by the injection of nitrogen gas and was monitored continuously. Cell numbers were quantified by the fluorescent labeling of nucleic acids (CyQuant dye; Molecular Probes, Carlsbad, Calif.) and with a microplate fluorescence reader (FLX800; Bio-Tek Instruments Inc., Winooski, Vt.) set to 480 nm excitation and 520 nm emission. […]

cardiac progenitor cells [2] = test: Signal transduction inhibitor study on CPC number (48 hrs); type: cell-based, rat; settings: for cell number ratio to control cell number: CPCs in MSC CdM; for cell number ratio to control cell number / effect on number/growth of CPCs in MSC conditioned media: 48 hrs; for effect on number/growth of CPCs in MSC conditioned media: inhibitor 10 μM
Method: Serum-free conditioned media was prepared as described previously (Kiel et al., Cell 2005; 121:1109-1121). cardiac progenitor cells and cardiac fibroblasts were plated at 500 cells/cm^2 and cultured in their growth medium. Three days after plating the medium was removed, the wells were washed twice with PBS, and the cells were then exposed to conditioned media or to fresh serum-free medium (α-MEM). For time course proliferation studies, the conditioned media and serum-free medium were changed every 2 days. […] All inhibitors were from Calbiochem (EMD Chemicals, San Diego, Calif.) and were dissolved in dimethyl sulfoxide (DMSO). Cardiac progenitor cells were cultured in conditioned media with the inhibitors or with the equivalent volume of DMSO as a control for 48 hrs. In the protection study, 3 days after plating, the medium was replaced with either the conditioned media or serum-free medium and the cells were exposed to hypoxia in a specialized incubator (1% oxygen) for 48 hours. The hypoxia incubator was a model that measured both CO2 and O2 (Thermo Electron, Form a Series II, model 3130). Oxygen was maintained at 1% by the injection of nitrogen gas and was monitored continuously. Cell numbers were quantified by the fluorescent labeling of nucleic acids (CyQuant dye; Molecular Probes, Carlsbad, Calif.) and with a microplate fluorescence reader (FLX800; Bio-Tek Instruments Inc., Winooski, Vt.) set to 480 nm excitation and 520 nm emission. Each experiment was repeated a minimum of 3 times.

CD133dMSCs = test: Puromycin kill curve; type: cell-based, human; settings: after 3 days
Method: Based on observations that CD133dMSCs increased their secretion of SDF-1 in culture following exposure to hypoxia and mRNA expression in vivo after injection into stroke penumbra, the role of SDF-1 in mediating the benefits of CD133dMSC CdM was explored using lentiviral shRNA knockdown of SDF-1 with puromycin-selectable vectors. In preliminary studies, kill curves were performed with transduced CD133dMSCs incubated in puromycin-containing culture medium to remove cells that were not transduced by lentivirus. […] Following lentiviral transduction of expanded CD133dMSCs from a single donor with a scrambled shRNA vector, 2 different shRNAs vectors against SDF-1, or a control selectable GFP vector, ELISAs and FACS assays were performed to characterize the cells.

N#C/C(=C/c1ccc(O)c(O)c1)C(=O)NCc1ccccc1 [AG490]
effect on protective effects of conditioned media during hypoxia (cardiac progenitor cells [1]): inhibited the protective effects | cell number ratio to control cell number (cardiac progenitor cells [2]; 1 μM): 96.3±0.9% | cell number ratio to control cell number (cardiac progenitor cells [2]; 5 μM): 89.5±0.9% | effect on CPC numbers in growth medium (cardiac progenitor cells [2]; 10 μM, 48 hours): not AG490 significantly diminished | effect on number of CPCs in conditioned media from fibroblasts (cardiac progenitor cells [2]; 10 μM, 48 hours): inhibitory effect | effect on number of CPCs in conditioned media from p75MSCs (cardiac progenitor cells [2]; 10 μM, 48 hours): inhibitory effect | effect on number of CPCs in serum-free medium (cardiac progenitor cells [2]; 10 μM, 48 hours): significantly reduced | cell number ratio to control cell number (cardiac progenitor cells [2]; 10 μM): 43.4±2.4%

COc1cccc(-c2cc(=O)c3ccccc3o2)c1N [PD98059]
effect on number/growth of CPCs in MSC conditioned media (cardiac progenitor cells [2]): did not block

O=[N+]([O-])c1ccc2c(c1)S(=O)(=O)C=C2 [Stattic]
effect on protective effects of conditioned media during hypoxia (cardiac progenitor cells [1]): blocked the protective effects | effect on number/growth of CPCs in MSC conditioned media (cardiac progenitor cells [2]): completely blocked

COc1ccc(C[C@H](N)C(=O)N[C@H]2[C@@H](O)[C@H](n3cnc4c(N(C)C)ncnc43)O[C@@H]2CO)cc1 [puromycin]
concentration sufficient to remove all untransduced CD133dMSCs (CD133dMSCs): 2 µg/mL
